Results on three molecules are retold here after PMC12785803, “Novel ACE-Inhibitory Peptides from Royal Jelly Proteins: Comprehensive Screening, Mechanistic Insights, and Endothelial Protection” (Foods, 2025).

No end group written: not given here.

Data set [1] concerns EA.hy926 cells. Kind of data set: ET-1 level in Ang II-stimulated cells (ELISA). Type of data set: cell-based. The note with it: captopril after Ang II; control 13.82, Ang II 15.65. The method, then: (§1) To evaluate the effect of the peptide on endothelial function, NO and ET-1 levels were measured in this study. Briefly, EA.hy926 cells were seeded in 6-well plates at a density of 4 × 10^5 cells/well and allowed to adhere overnight. After removing the medium, cells were incubated with 1 μmol/L Ang II for 12 h to induce endothelial dysfunction. Subsequently, the peptide solutions at different concentrations (0.1, 0.2, and 0.4 mg/mL) or the captopril solutions were added, and the cells were incubated for an additional 24 h. For the blank control group, the cells received no treatment. After incubation, the culture supernatants were collected and centrifuged to remove debris. Both NO and ET-1 contents in the supernatants were quantified using commercial kits according to the manufacturer’s protocols. NO content was determined using the Griess reaction (OD = 550 nm), and ET-1 levels were measured via enzyme-linked immunosorbent assay (ELISA) (OD = 450 nm). Absorbance values were recorded at the corresponding wavelengths using a microplate reader (Spark 10M, Tecan, Männedorf, Switzerland).
Background: An ELISA detects its analyte on a solid surface through an enzyme-linked reagent.

The test system of data set [2] is EA.hy926 cells. In words: NO level in Ang II-stimulated cells (Griess). Format: cell-based. The note with it: captopril after Ang II; control 109.8, Ang II 58.95. The method, then: as §1
(Griess reagent forms a coloured azo dye with nitrite.)

In data set [3] the test system is EA.hy926 cells. Kind of data set: GSH-Px activity in H2O2-damaged cells. Type of data set: cell-based. To be noted: captopril; vs H2O2 group. As for the experimental part:
(§2) The activities of SOD and GSH-Px were assessed as follows. EA.hy926 cells were seeded in 6-well plates at 4 × 10^5 cells per well and cultured overnight. After attachment, the cells were serum-starved in high-glucose DMEM containing 1% FBS for 12 h, and then treated for 24 h with peptide solutions at the indicated concentrations or with captopril. […] After treatment, the cells were washed with ice-cold PBS, lysed on ice, and centrifuged to collect the supernatants. SOD and GSH-Px activities were measured spectrophotometrically at 550 nm and 412 nm, respectively, using a microplate reader. Enzyme activities were calculated, normalized to total protein content, and expressed as U/mg protein.

For data set [4], the system named is EA.hy926 cells. Kind of data set: SOD activity in H2O2-damaged cells. The note with it: captopril; vs H2O2 group. Type of data set: cell-based. As for the experimental part:
as §2

Data set [5] has as its system EA.hy926 cells. Kind of data set: Wound healing assay (Ang II-induced migration). Format: cell-based. To be noted: captopril 0.2 mg/mL, Ang II-induced. As for the experimental part:
The effect of peptides on endothelial cell migration was evaluated using a wound healing assay. Briefly, EA.hy926 cells were seeded into 6-well plates and cultured at 37 °C in a humidified atmosphere containing 5% CO2. When the cells reached full confluence, they were treated with 1 μmol/L Ang II for 12 h to induce endothelial dysfunction. Subsequently, a straight scratch was created across the cell monolayer using a sterile 200 μL pipette tip. Detached cells were gently removed by rinsing with PBS, leaving a clear cell-free wound area. To minimize proliferation interference, cells were then incubated in high-glucose DMEM containing 1% FBS, supplemented with different concentrations of the peptides or captopril. Images of the same wound area were captured at 0 h, 6 h, and 24 h using a fluorescence microscope (Axio Observer, Zeiss, Jena, Germany), and the wound area was quantified using ImageJ software (version 1.54g).

In data set [6] the test system is EA.hy926 cells. In words: MTT cytotoxicity assay. To be noted: EA.hy926, 24 h, 0.0625 to 1 mg/mL; ISO 10993-5 limit: viability above 70%. On the technique in general: Tetrazolium dyes change colour on reduction, which living cells bring about.
Description: Cell culture. EA.hy926 endothelial cells were cultured in high-glucose Dulbecco’s Modified Eagle Medium (DMEM) supplemented with 10% fetal bovine serum (FBS) and 1% penicillin–streptomycin. Cells were maintained in a humidified incubator at 37 °C with 5% CO2. When cell confluence reached approximately 70–80%, subculturing was performed for subsequent experiments.
Cytotoxicity assay. The cytotoxicity of the peptides was evaluated using the MTT assay [29]. […] After incubation at 37 °C for 4 h, the supernatant was carefully removed, and 150 μL of DMSO was added to dissolve the formazan crystals. The plate was shaken for 10 min, and the absorbance was measured at 490 nm using a microplate reader.
Data set [7] deals with endothelial cells. Further details: method as in PMID 37501259. The note with it: Ang II-treated endothelial cells, cited from earlier work.
The test system of data set [8] is endothelial cells. The note with it: 48 h of treatment; 129% in the Ang II group; cited from earlier work. From the text:
All three concentrations produced highly similar su ...

In the data set with EA.hy926 cells [1], `C[C@H](CS)C(=O)N1CCC[C@H]1C(=O)O` [captopril] showed an ET-1 content of 12.70 ± 0.48 pg/mg prot. For the same molecule, in the data set with EA.hy926 cells [2], the NO level turned out to be 97.86 ± 4.47 μmol/g prot. Moreover, the GSH-Px improvement in the data set with EA.hy926 cells [3] came out at 38.8%. Also, the SOD improvement with EA.hy926 cells [4] was 70.9%. Besides, the Migration rate in the data set on EA.hy926 cells [5] (6 h, Ang II alone 42.44) came out at 25.77 ± 2.49%; with EA.hy926 cells [5] (24 h, Ang II alone 89.68) it was 57.52 ± 1.92%.

Turning to PYPDWSFAK [PYPDWSFAK], the “Cytotoxicity” value with EA.hy926 cells [6] is on record as “non-cytotoxic”.

Take SPIH [soybean protein-derived peptide]: in the data set on endothelial cells [7] (31.4 ± 0.7 before), the NO content was 43.7 ± 0.1 µmol/L. Also, the NO increase in the data set on endothelial cells [7] is given as 39.3%. Also, the Endothelial wound healing in the data set with endothelial cells [8] is given as 92%.
